Where two headings read alike, the source gives them in different places.
Test system: clinical isolates of Aspergillus fumigatus
Assay: Broth microdilution checkerboard MIC, RPMI medium (pH 7.0), drugs alone and combined
Format: cell-based
Conditions: for MIC: Aspergillus fumigatus
Method: The broth microdillution method using RPMI medium (pH 7.0) was used, comparing the each drug alone (Test Compound, AMPH-B, ITCZ, Nikkomycin X and 5-FC) and combined for each clinical isolates of Aspergillus fumigatus. A combination of drug concentrations was evaluated by the checkerboard method.
All tubes were examined macroscopically for growth and compared to a control (no drug). MIC was visually determined as the lowest concentration resulting in prominent decrease in turbidity compared to controls.
The Fractional Inhibitory Concentration (FIC) for each drug in mixture wells was compared to the MIC for each drug alone. The FIC index was calculated from the sum of the FICs for the two drugs. A quantitative expression of the interaction for inhibition is as follows: Synergy≦0.5; Test Result In vitro combination with Test Compound and AMPH-B against A. fumigatus

C[C@@H]1[C@H](O)[C@@H](C)/C=C/C=C/C=C/C=C/C=C/C=C/C=C/[C@H](O[C@@H]2O[C@H](C)[C@@H](O)[C@H](N)[C@@H]2O)C[C@@H]2O[C@](O)(C[C@@H](O)C[C@@H](O)[C@H](O)CC[C@@H](O)C[C@@H](O)CC(=O)O[C@H]1C)C[C@H](O)[C@H]2C(=O)O [AMPH-B, amphotericin B]
MIC AMPH-B Alone (A. fumigatus 8004, drug alone): 2 µg/mL | MIC AMPH-B Combination (A. fumigatus 8004, in combination with Test Compound): 0.5 µg/mL

CCCCCOc1ccc(-c2cc(-c3ccc(C(=O)NC4CC(O)C(O)NC(=O)C5C(O)C(C)CN5C(=O)C(C(O)CC(N)=O)NC(=O)C(C(O)C(O)c5ccc(O)c(OS(=O)(=O)[O-])c5)NC(=O)C5CC(O)CN5C(=O)C(C(C)O)NC4=O)cc3)no2)cc1.[Na+] (stereo not shown) [Test Compound]
MIC Test Compound Combination (A. fumigatus 8004, in combination with AMPH-B): 0.0078 µg/mL | MIC Test Compound Combination (A. fumigatus 8008, in combination with ITCZ): 0.0078 µg/mL | MIC Test Compound Combination (A. fumigatus FP1923, in combination with Nikkomycin X): ≦0.001 μg/ml | MIC Test Compound Combination (A. fumigatus FP1990, in combination with 5-FC): 0.002 µg/mL | MIC (read-out: MIC Test Compound Alone, A. fumigatus 8004, drug alone): 0.0313 µg/mL | MIC (read-out: MIC Test Compound Alone, A. fumigatus 8008, drug alone): 0.0313 µg/mL | MIC (read-out: MIC Test Compound Alone, A. fumigatus FP1923, drug alone): 0.0039 µg/mL | MIC (read-out: MIC Test Compound Alone, A. fumigatus FP1990, drug alone): 0.0078 µg/mL

CCC(C)n1ncn(-c2ccc(N3CCN(c4ccc(OCC5COC(Cn6cncn6)(c6ccc(Cl)cc6Cl)O5)cc4)CC3)cc2)c1=O (stereo not shown) [ITCZ, itraconazole]
MIC ITCZ Combination (A. fumigatus 8008, in combination with Test Compound): 0.125 µg/mL | MIC (A. fumigatus 8008, drug alone, read-out: MIC ITCZ Alone): 0.5 µg/mL

Nc1[nH]c(=O)ncc1F [5-FC, flucytosine]
MIC 5-FC Combination (A. fumigatus FP1990, in combination with Test Compound): 8 µg/mL | MIC (A. fumigatus FP1990, drug alone, read-out: MIC 5-FC Alone): > 32 µg/mL

C[C@@H]([C@H](N)C(=O)N[C@H](C(=O)O)[C@H]1OC(n2cc(C=O)nc2O)[C@H](O)[C@@H]1O)[C@H](O)c1ccc(O)cn1 (stereo partly shown) [Nikkomycin X, nikkomycin X]
MIC Nikkomycin X Alone (A. fumigatus FP1923, drug alone): 128 µg/mL | MIC Nikkomycin X Combination (A. fumigatus FP1923, in combination with Test Compound): 4 µg/mL

From patent US7375081B2, “Therapeutic combination of a pneumocandin derivative and an antifungal agent” (Astellas Pharma Inc., priority 1999, dated 2008)
